Drawing on PubChem BioAssay AID328 (DTP/NCI, 2004), this text covers T/C for 12 compounds.

“And” between values parts separate entries of the source, which are not always exact repeats. Equal entries are not always repeated. Toxic doses and inconclusive results are not listed.

This test deals with BDF1 mice, P388 leukemia ip, median survival T/C. As to the kind of experiment: NCI In Vivo Anticancer Drug Screen. Data for tumor model P388 Leukemia (intraperitoneal) in B6D2F1 (BDF1) mice. Conditions: endpoint: median survival time, higher = longer survival. In outline:
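Transplantable tumour in mice; compound vs vehicle dosing; survival scored; ratio of treated to control reported.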

Where [1] appears, read: dose: 25.0 mg/kg/injection, schedule: Q01DX009 (ip), vehicle: Klucel (hydroxypropylcellulose) (HPC).
Where [2] appears, read: dose: 50.0 mg/kg/injection, schedule: Q01DX009 (ip), vehicle: Klucel (hydroxypropylcellulose) (HPC).
Setting [3] is: dose: 25.0 mg/kg/injection, schedule: Q04DX003 (ip), vehicle: saline.
Setting [4] is: dose: 3.12 mg/kg/injection, schedule: Q01DX009 (ip), vehicle: saline.
[5] abbreviates: dose: 6.25 mg/kg/injection, schedule: Q01DX009 (ip), vehicle: saline.
Where [6] appears, read: dose: 25.0 mg/kg/injection, schedule: Q01DX009 (ip), vehicle: saline.
[7] abbreviates: dose: 50.0 mg/kg/injection, schedule: Q01DX009 (ip), vehicle: saline.
Setting [8] is: dose: 100.0 mg/kg/injection, schedule: Q01DX009 (ip), vehicle: saline.
[9] abbreviates: dose: 50.0 mg/kg/injection, schedule: Q01DX009 (ip), vehicle: saline with Tween-80.
[10] abbreviates: dose: 100.0 mg/kg/injection, schedule: Q01DX009 (ip), vehicle: saline with Tween-80.

For `O=C(Nc1cccc(Cl)c1)c1cc(N=Nc2ccc([N+](=O)[O-])cc2Cl)ccc1O`, the T/C is, setting by setting: under setting [1], 114 % of control; under setting [2], 114 % of control; (dose: 133.0 mg/kg/injection, schedule: Q04DX003 (ip), vehicle: Klucel (hydroxypropylcellulose) (HPC)) 115 % of control; (dose: 200.0 mg/kg/injection, schedule: Q04DX003 (ip), vehicle: Klucel (hydroxypropylcellulose) (HPC)) 161 % of control; (dose: 400.0 mg/kg/injection, schedule: Q04DX003 (ip), vehicle: Klucel (hydroxypropylcellulose) (HPC)) 155 % of control.

Consider `Oc1cccc2cccnc12.[Cu+].[O-]c1cccc2cccnc12`, for which the T/C was 104 % of control (dose: 1.87 mg/kg/injection, schedule: Q01DX009 (ip), vehicle: saline); 90 % of control (dose: 2.75 mg/kg/injection, schedule: Q04DX003 (ip), vehicle: saline); 100 % of control (dose: 3.75 mg/kg/injection, schedule: Q01DX009 (ip), vehicle: saline); 100 % of control (dose: 5.5 mg/kg/injection, schedule: Q04DX003 (ip), vehicle: saline); 113 % of control (dose: 11.0 mg/kg/injection, schedule: Q04DX003 (ip), vehicle: saline); 100 % of control (dose: 16.0 mg/kg/injection, schedule: Q04DX003 (ip), vehicle: saline). The T/C under setting [3] is 100 % of control.

For `C=C1C(=O)OC2/C=C(\CO)C(OC(C)=O)CC(O)/C(C)=C/C(OC(=O)C(C)CC)C12` (stereo not given), the T/C is, setting by setting: (dose: 6.25 mg/kg/injection, schedule: Q01DX009 (ip), vehicle: Klucel (hydroxypropylcellulose) (HPC)) 110 % of control; (dose: 12.5 mg/kg/injection, schedule: Q01DX009 (ip), vehicle: Klucel (hydroxypropylcellulose) (HPC)) 108 % of control; under setting [1], 119 % of control; under setting [2], 117 % of control.

Turning to `Cc1oc(-c2ccccc2)nc1C(=O)Cl`, the T/C was 120 % of control (dose: 100.0 mg/kg/injection, schedule: Q01DX001 (ip), vehicle: saline with Tween-80); 113 % of control (dose: 200.0 mg/kg/injection, schedule: Q01DX001 (ip), vehicle: saline with Tween-80); 103 % of control (dose: 400.0 mg/kg/injection, schedule: Q01DX001 (ip), vehicle: saline with Tween-80).

With `CCCCNC(C)(C)CO`, the T/C reads like this: under setting [4], 100 % of control; under setting [5], 99 % of control; (dose: 12.5 mg/kg/injection, schedule: Q01DX009 (ip), vehicle: saline) 99 % of control; (dose: 12.5 mg/kg/injection, schedule: Q04DX003 (ip), vehicle: saline) 102 % of control; under setting [6], 99 % of control; under setting [3], 100 % of control. The T/C runs as follows: under setting [7], 86 % of control; (dose: 50.0 mg/kg/injection, schedule: Q04DX003 (ip), vehicle: saline) 102 % of control; under setting [8], 103 % of control; (dose: 100.0 mg/kg/injection, schedule: Q04DX003 (ip), vehicle: saline) 95 % of control and 100 % of control.

For the compound `CC(=O)[C@H]1CC[C@H]2[C@@H]3C[C@H](C)C4=CC(=O)CC[C@]4(C)[C@H]3C(=O)C[C@]12C`, the T/C is 103 % of control (dose: 100.0 mg/kg/injection, schedule: Q04DX003 (ip), vehicle: saline with Tween-80); 107 % of control (dose: 200.0 mg/kg/injection, schedule: Q04DX003 (ip), vehicle: saline with Tween-80); 103 % of control (dose: 400.0 mg/kg/injection, schedule: Q04DX003 (ip), vehicle: saline with Tween-80).

As to `CCNc1c([N+](=O)[O-])cc(S(=O)(=O)O)cc1[N+](=O)[O-]`, the T/C was 100 % of control (dose: 50.0 mg/kg/injection, schedule: Q04DX003 (ip), vehicle: saline sonified); 104 % of control (dose: 100.0 mg/kg/injection, schedule: Q04DX003 (ip), vehicle: saline sonified); 104 % of control (dose: 200.0 mg/kg/injection, schedule: Q04DX003 (ip), vehicle: saline sonified).

Consider `CC1CN1CC(O)C(O)CN1CC1C` (stereo not given), for which the T/C is 100 % of control (dose: 0.09 mg/kg/injection, schedule: Q04DX003 (ip), vehicle: saline); 103 % of control (dose: 0.19 mg/kg/injection, schedule: Q04DX003 (ip), vehicle: saline); 165 % of control (dose: 0.78 mg/kg/injection, schedule: Q01DX009 (ip), vehicle: saline); 200 % of control (dose: 0.78 mg/kg/injection, schedule: Q04DX003 (ip), vehicle: saline); 225 % of control (dose: 0.8 mg/kg/injection, schedule: Q01DX009 (ip), vehicle: saline with Tween-80); 241 % of control (dose: 1.2 mg/kg/injection, schedule: Q01DX009 (ip), vehicle: saline with Tween-80). Moreover, the T/C is 170 % of control (dose: 1.3 mg/kg/injection, schedule: Q04DX003 (ip), vehicle: saline); 203 % of control (dose: 1.56 mg/kg/injection, schedule: Q01DX009 (ip), vehicle: saline); 229 % of control and 181 % of control (dose: 1.56 mg/kg/injection, schedule: Q04DX003 (ip), vehicle: saline); 250 % of control (dose: 1.8 mg/kg/injection, schedule: Q01DX009 (ip), vehicle: saline with Tween-80); 250 % of control (dose: 2.0 mg/kg/injection, schedule: Q01DX009 (ip), vehicle: saline); 250 % of control (dose: 3.0 mg/kg/injection, schedule: Q01DX009 (ip), vehicle: saline). In addition, the T/C is, setting by setting: under setting [4], 203 % of control; (dose: 3.12 mg/kg/injection, schedule: Q04DX003 (ip), vehicle: saline) 222 % of control; (dose: 3.3 mg/kg/injection, schedule: Q04DX003 (ip), vehicle: saline) 236 % of control; (dose: 4.5 mg/kg/injection, schedule: Q04DX003 (ip), vehicle: saline) 200 % of control; (dose: 5.0 mg/kg/injection, schedule: Q04DX003 (ip), vehicle: saline) 295 % of control; under setting [5], 95 % of control. Also, the T/C runs as follows: (dose: 6.25 mg/kg/injection, schedule: Q04DX003 (ip), vehicle: saline) 231 % of control; (dose: 6.6 mg/kg/injection, schedule: Q04DX003 (ip), vehicle: saline) 259 % of control; (dose: 10.0 mg/kg/injection, schedule: Q04DX003 (ip), vehicle: saline) 86 % of control.

In the case of `Br/C(=N\Nc1nn[nH]n1)c1ccncc1`, the T/C by setting is: under setting [6], 90 % of control; under setting [7], 100 % of control and 104 % of control; under setting [8], 90 % of control and 100 % of control; (dose: 200.0 mg/kg/injection, schedule: Q01DX009 (ip), vehicle: saline) 95 % of control and 113 % of control.

`O=C(O)CC(SC(CC(=O)O)C(F)(F)C(F)(F)C(F)(F)F)C(F)(F)C(F)(F)C(F)(F)F` (stereo not given): the T/C (dose: 25.0 mg/kg/injection, schedule: Q01DX009 (ip), vehicle: saline with Tween-80) is 100 % of control; the T/C under setting [9] is 110 % of control; the T/C under setting [10] is 110 % of control.

As to `COc1cc([N+](=O)[O-])ccc1NC(=O)NCc1ccccc1`, the T/C was 95 % of control under setting [9]; 98 % of control under setting [10]; 98 % of control (dose: 200.0 mg/kg/injection, schedule: Q01DX009 (ip), vehicle: saline with Tween-80); 104 % of control (dose: 400.0 mg/kg/injection, schedule: Q01DX009 (ip), vehicle: saline with Tween-80).

Take `COc1ccc(C(=O)/C=C/c2ccc(OCc3ccccc3)c(OC)c2)cc1OC`: the T/C was 111 % of control (dose: 50.0 mg/kg/injection, schedule: Q01DX009 (ip), vehicle: water); 101 % of control (dose: 50.0 mg/kg/injection, schedule: Q04DX003 (ip), vehicle: water); 114 % of control (dose: 100.0 mg/kg/injection, schedule: Q01DX009 (ip), vehicle: water); 94 % of control (dose: 100.0 mg/kg/injection, schedule: Q04DX003 (ip), vehicle: water); 104 % of control (dose: 200.0 mg/kg/injection, schedule: Q01DX009 (ip), vehicle: water); 102 % of control (dose: 200.0 mg/kg/injection, schedule: Q04DX003 (ip), vehicle: water). Besides, the T/C (dose: 400.0 mg/kg/injection, schedule: Q01DX009 (ip), vehicle: water) was 114 % of control and the T/C (dose: 400.0 mg/kg/injection, schedule: Q04DX003 (ip), vehicle: water) is 100 % of control.
